Assay results as given in PubChem BioAssay AID1963976 (Molecular Pharmacology Branch, DTP, NCI, 2024).

System: 435261-313-R-J1-PDC tumor spheroid viability
Experiment: Anticancer human tumor 435261-313-R-J1-PDC patient-derived colon adenocarcinoma cell line growth inhibition [PI3K]
Details: spheroids with HUVEC and MSC; for IC50: curve of first compound; for viability, T/C: stronger effect = lower value
Source text: Combinatorial screen of targeted agents with the PI3K inhibitors inavolisib, alpelisib, duvelisib, and copanlisib in multi-cell type tumor spheroids
A high-throughput screen of multi-cell type tumor spheroids was designed to identify active combinations of targeted small molecules and PI3K pathway inhibitors. Complex spheroids include a stromal component modeled by human endothelial cells (HUVEC) and fibroblasts modeled by human mesenchymal stem cells (MSCs). The concentration ranges selected for each drug and investigational agent were based upon clinically achievable concentrations if the clinical Cmax of the agent was known.
Compounds. The drugs and investigational agents: inavolisib (NSC800729), alpelisib (NSC765974), duvelisib (NSC772469), copanlisib (NSC816437), ipatasertib (NSC767898), afuresertib (NSC778305), talazoparib (NSC767125), sapanisertib (NSC764658), selumetinib (NSC741078), tovorafenib (DAY101, NSC766906), vemurafenib (NSC761431), ravoxertinib (NSC781343), sotorasib (NSC818433), MRTX1133 (NSC 836407), abemaciclib (NSC 768073), palbociclib (NSC758247), venetoclax (NSC 766270), SY5609 (NSC837396), enzalutamide (NSC755605), and darolutamide (NSC825331), were obtained from the National Cancer Institute (NCI) Developmental Therapeutics Program Chemical Repository. The FDA-approved anticancer drug set is available from the NCI Developmental Therapeutics Program. […] The stock solutions were prepared in dimethyl sulfoxide (DMSO, Sigma-Aldrich, St. Louis, MO, cat. D2650) at 800-fold the tested concentration and stored at -70 degrees C prior to their use. All drugs and investigational agents were tested over a range starting from a high concentration at or near the clinical Cmax and decreasing in half-log increments. If the clinical Cmax for an agent had not been determined, the highest concentration tested was 10 microM.
Cell Culture. All cells were maintained in an incubator at 37 degrees C and 5% CO2 with 95% humidity. The PDC lines were cultured according to standard operating procedures established by the NCI PDMR (https://pdmr.cancer.gov/sops/default.htm). All PDCs were thawed and cultured in Matrigel-coated flasks prepared with a working solution of 1X Ham's F-12 nutrient mix, without supplementation (Invitrogen, Waltham, MA, cat. 11765054), 100 U/mL penicillin-streptomycin (Invitrogen, cat. 15140122), and 2.5% Matrigel (Corning Inc., Corning, NY, cat. 354248) for the first three passages. The 354836-022-R-J1-PDC, 475296-252-R-J1-PDC, and 997726-040-R-J2-PDC lines were cultured in 6A media, which includes advanced DMEM/F-12 (Thermo Fisher Scientific, cat. 12634028), 10 mM HEPES (Thermo Fisher Scientific, cat. 15630080), 1X GlutaMAX supplement (Thermo Fisher Scientific, cat. 35050061), 0.1 mg/mL primocin (InvivoGen, San Diego, CA, cat. ant-pm-2), 10% defined fetal bovine serum, heat inactivated (HyClone Laboratories Inc., Logan, UT, cat. SH30070.03HI), 50% L-WRN conditioned media (ATCC, cat. CRL-3276), 1.25 mM N-Acetyl-L-cysteine (Sigma-Aldrich, cat. A9165), 10 mM nicotinamide (Sigma-Aldrich, cat. N0636), 1X B-27 supplement (Thermo Fisher Scientific, cat. 17504044), 1X N-2 supplement (Thermo Fisher Scientific, cat. 17502048), and 10 microM Y-27632 dihydrochloride (Tocris Bioscience, Bristol, United Kingdom, cat. 1254). The 624824-186-R-J2-PDC line was cultured in 6C/Colon 1B media, which includes all 6A media components plus 50 ng/mL human EGF recombinant protein (Thermo Fisher Scientific, cat. PHG0311). […]
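Further: spheroids exposed to compounds for 7 days.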

CNC(=O)c1ccc(N2C(=S)N(c3ccc(C#N)c(C(F)(F)F)c3)C(=O)C2(C)C)cc1F + CC(Nc1ccc2c(c1)OCCn1cc(N3C(=O)OCC3C(F)F)nc1-2)C(N)=O
IC50 (second compound 0.00316 µM): > 10 µM
IC50 (second compound 0.01 µM): > 10 µM
IC50 (second compound 0.0316 µM): > 10 µM
IC50 (second compound 0.1 µM): < 0.0316 µM
IC50 (second compound 0.316 µM): < 0.0316 µM
IC50 (second compound 1 µM): < 0.0316 µM
viability, T/C (second compound 0.00316 µM, first compound 0.0316 µM): 73.1%
viability, T/C (second compound 0.00316 µM, first compound 0.1 µM): 95.5%
viability, T/C (second compound 0.00316 µM, first compound 0.316 µM): 74.7%
viability, T/C (second compound 0.00316 µM, first compound 1 µM): 101%
viability, T/C (second compound 0.00316 µM, first compound 3.16 µM): 106%
viability, T/C (second compound 0.00316 µM, first compound 10 µM): 93.2%
viability, T/C (second compound 0.01 µM, first compound 0.0316 µM): 81.7%
viability, T/C (second compound 0.01 µM, first compound 0.1 µM): 92.6%
viability, T/C (second compound 0.01 µM, first compound 0.316 µM): 77.2%
viability, T/C (second compound 0.01 µM, first compound 1 µM): 96%
viability, T/C (second compound 0.01 µM, first compound 3.16 µM): 141%
viability, T/C (second compound 0.01 µM, first compound 10 µM): 123%
viability, T/C (second compound 0.0316 µM, first compound 0.0316 µM): 69.8%
viability, T/C (second compound 0.0316 µM, first compound 0.1 µM): 77.3%
viability, T/C (second compound 0.0316 µM, first compound 0.316 µM): 57.7%
viability, T/C (second compound 0.0316 µM, first compound 1 µM): 82.9%
viability, T/C (second compound 0.0316 µM, first compound 3.16 µM): 84.6%
viability, T/C (second compound 0.0316 µM, first compound 10 µM): 68.2%
viability, T/C (second compound 0.1 µM, first compound 0.0316 µM): 48.9%
viability, T/C (second compound 0.1 µM, first compound 0.1 µM): 28.5%
viability, T/C (second compound 0.1 µM, first compound 0.316 µM): 44.9%
viability, T/C (second compound 0.1 µM, first compound 1 µM): 51.9%
viability, T/C (second compound 0.1 µM, first compound 3.16 µM): 36.8%
viability, T/C (second compound 0.1 µM, first compound 10 µM): 29.6%
viability, T/C (second compound 0.316 µM, first compound 0.0316 µM): 22.3%
viability, T/C (second compound 0.316 µM, first compound 0.1 µM): 19.2%
viability, T/C (second compound 0.316 µM, first compound 0.316 µM): 15.5%
viability, T/C (second compound 0.316 µM, first compound 1 µM): 24.6%
viability, T/C (second compound 0.316 µM, first compound 3.16 µM): 24%
viability, T/C (second compound 0.316 µM, first compound 10 µM): 17.5%
viability, T/C (second compound 1 µM, first compound 0.0316 µM): 15.5%
viability, T/C (second compound 1 µM, first compound 0.1 µM): 15.6%
viability, T/C (second compound 1 µM, first compound 0.316 µM): 15.3%
viability, T/C (second compound 1 µM, first compound 1 µM): 15.2%
viability, T/C (second compound 1 µM, first compound 3.16 µM): 18.8%
viability, T/C (second compound 1 µM, first compound 10 µM): 12.8%
